Laboratory results from ChEMBL document CHEMBL2375353, “Efficient induction of apoptosis in HeLa cells by a novel cationic porphycene photosensitizer” (Eur J Med Chem, 2013).
Activity calls are given as the source filed them. The rule behind the calls is not given here.

Tests used:
HeLa [1] = test: Induction of apoptosis in human HeLa cells assessed as reduction in F-actin expression at 0.75 to 0.5 uM incubated for 18 hrs by immunostaining assay; type: cell-based
HeLa [2] = test: Induction of apoptosis in human HeLa cells assessed as reduction in vinculin expression at 0.75 to 0.5 uM incubated for 18 hrs by immunostaining assay; type: cell-based
HeLa [3] = test: Induction of apoptosis in human HeLa cells assessed as reduction in F-actin expression at 0.5 uM incubated for 18 hrs followed by red light irradiation measured after 3 hrs by immunostaining assay; type: functional, cell-based
HeLa [4] = test: Induction of apoptosis in human HeLa cells assessed as reduction in vinculin expression at 0.5 uM incubated for 18 hrs followed by red light irradiation measured after 3 hrs by immunostaining assay; type: functional, cell-based
HeLa [5] = test: Induction of necrosis in human HeLa cells assessed as disorganization of F-actin at 0.75 uM incubated for 18 hrs followed by red light irradiation measured after 24 hrs by immunostaining; type: functional, cell-based
HeLa [6] = test: Induction of necrosis in human HeLa cells assessed as cellular damage at 0.75 uM incubated for 18 hrs followed by red light irradiation measured after 24 hrs; type: functional, cell-based
HeLa [7] = test: Induction of apoptosis in human HeLa cells assessed as reduction in vinculin expression at 0.5 uM incubated for 18 hrs followed by red light irradiation measured after 24 hrs by immunostaining assay; type: functional, cell-based
HeLa [8] = test: Induction of apoptosis in human HeLa cells assessed as membrane bubble at 0.5 uM incubated for 18 hrs followed by red light irradiation measured after 6 hrs by immunostaining assay; type: functional, cell-based
HeLa [9] = test: Induction of apoptosis in human HeLa cells assessed as apoptotic chromatin at 0.5 uM incubated for 18 hrs followed by red light irradiation measured after 6 hrs by immunostaining assay; type: functional, cell-based
HeLa [10] = test: Induction of apoptosis in human HeLa cells assessed as reduction in F-actin expression at 0.5 uM incubated for 18 hrs followed by red light irradiation measured after 6 hrs by immunostaining assay; type: functional, cell-based
HeLa [11] = test: Induction of apoptosis in human HeLa cells assessed as reduction in vinculin expression at 0.5 uM incubated for 18 hrs followed by red light irradiation measured after 6 hrs by immunostaining assay; type: functional, cell-based
HeLa [12] = test: Induction of apoptosis in human HeLa cells assessed as microtubule alteration at 0.75 uM incubated for 18 hrs followed by red light irradiation after 3 to 24 hrs by […]; type: functional, cell-based
HeLa [13] = test: Induction of apoptosis in human HeLa cells assessed as microtubule alteration at 0.5 uM incubated for 18 hrs followed by red light irradiation after 6 to 24 hrs by […]; type: functional, cell-based
HeLa [14] = test: Induction of apoptosis in human HeLa cells assessed as reduction in cell volume at 0.5 uM incubated for 18 hrs followed by red light irradiation measured after 3 hrs by Hoechst-33258 staining; type: functional, cell-based
HeLa [15] = test: Induction of necrosis in human HeLa cells at 0.5 to 0.75 uM incubated for 18 hrs by Hoechst-33258 staining; type: cell-based
HeLa [16] = test: Induction of necrosis in human HeLa cells at 0.75 uM incubated for 18 hrs followed by red light irradiation by Hoechst-33258 staining; type: functional, cell-based
HeLa [17] = test: Induction of apoptosis in human HeLa cells at 0.5 uM incubated for 18 hrs followed by red light irradiation by Hoechst-33258 staining; type: functional
HeLa [18] = test: Induction of apoptosis in human HeLa cells assessed as membrane blebbing at 0.5 uM incubated for 18 hrs prior to red light irradiation measured after 6 hrs by phase contrast microscopy; type: functional, cell-based
HeLa [19] = test: Induction of apoptosis in human HeLa cells assessed as fragmented chromatin at 0.5 uM incubated for 18 hrs prior to red light irradiation measured after 6 hrs by immunofluorescence method; type: functional, cell-based
HeLa [20] = test: Induction of apoptosis in human HeLa cells assessed as swollen mitochondria at 0.5 uM incubated for 18 hrs prior to red light irradiation measured after 3 hrs by immunofluorescence method; type: functional, cell-based
HeLa [21] = test: Induction of apoptosis in human HeLa cells at 0.5 uM incubated for 18 hrs prior to red light irradiation measured after 6 hrs by TUNEL assay; type: functional, cell-based
HeLa [22] = test: Induction of apoptosis in human HeLa cells at 0.5 uM incubated for 18 hrs prior to red light irradiation measured after 24 hrs; type: functional
HeLa [23] = test: Induction of apoptosis in human HeLa cells assessed as relocalization of proapoptotic Bax protein within mitochondria at 0.5 uM incubated for 18 hrs prior to red light irradiation measured after 3 to 24 hrs by indirect immunofluorescence; type: functional, cell-based
HeLa [24] = test: Induction of necrosis in human HeLa cells assessed as breaking of giant bubble at 0.75 uM incubated for 18 hrs prior to red light irradiation measured after 6 hrs by phase contrast microscopy; type: functional, cell-based
HeLa [25] = test: Induction of necrosis in human HeLa cells assessed as chromatin condensation at 0.75 uM incubated for 18 hrs prior to red light irradiation measured after 1 hr by Hoechst-33258 staining; type: functional, cell-based
HeLa [26] = test: Induction of necrosis in human HeLa cells assessed as giant bubble formation at 0.75 uM incubated for 18 hrs prior to red light irradiation measured after 1 hr by phase contrast microscopy; type: functional, cell-based
HeLa [27] = test: Induction of necrosis in human HeLa cells at 0.5 uM incubated for 18 hrs prior to red light irradiation measured after 6 to 24 hrs by Hoechst-33258 staining; type: functional, cell-based
HeLa [28] = test: Induction of necrosis in human HeLa cells at 0.5 uM incubated for 18 hrs prior to red light irradiation measured after 6 to 24 hrs by neutral red staining; type: functional, cell-based
HeLa [29] = test: Induction of apoptosis in human HeLa cells at 0.5 uM incubated for 18 hrs prior to red light irradiation measured after 6 to 24 hrs by Hoechst-33258 staining; type: functional, cell-based
HeLa [30] = test: Induction of apoptosis in human HeLa cells at 0.5 uM incubated for 18 hrs prior to red light irradiation measured after 6 to 24 hrs by neutral red staining; type: functional, cell-based
HeLa [31] = test: Induction of apoptosis in human HeLa cells assessed as nuclear fragmentation at 0.5 uM incubated for 18 hrs prior to red light irradiation measured after 3 hrs by Hoechst-33258 staining; type: functional, cell-based
HeLa [32] = test: Induction of apoptosis in human HeLa cells assessed as chromatin condensation at 0.5 uM incubated for 18 hrs prior to red light irradiation measured after 3 hrs by Hoechst-33258 staining; type: functional, cell-based

In the case of `COCc1ccc(C2=Cc3nc2ccc2[nH]c(cc2-c2ccc(C[n+]4ccccc4)cc2)c2nc(ccc4[nH]c3cc4-c3ccc(C[n+]4ccccc4)cc3)C(c3ccc(C[n+]4ccccc4)cc3)=C2)cc1.[Br-].[Br-].[Br-]`, the Activity (HeLa [1]) is reported as “Non-toxic”, the Activity (HeLa [2]) is reported as “Non-toxic” and the Activity (HeLa [3]) is reported as “Active”. The Activity (HeLa [4]) was “Active”, the Activity (HeLa [5]) was “Active” and the Activity (HeLa [6]) was “Active”. The Activity (HeLa [7]) was “Active”, the Activity (HeLa [8]) was “Active” and the Activity (HeLa [9]) was “Active”. For the same compound, the Activity (HeLa [10]) was “Active”, the Activity (HeLa [11]) was “Active” and the Activity (HeLa [12]) was “Active”. For the same compound, the Activity (HeLa [13]) was “Active”, the Activity (HeLa [14]) was “Active” and the Activity (HeLa [15]) was “Non-toxic”. The Activity (HeLa [16]) was “Active”, the Activity (HeLa [17]) was 70% and the Activity (HeLa [18]) was “Active”. For the same compound, the Activity (HeLa [19]) was “Active”, the Activity (HeLa [20]) was “Active” and the Activity (HeLa [21]) was “Active”. For the same compound, the Activity (HeLa [22]) was 70%, the Activity (HeLa [23]) was “Active” and the Activity (HeLa [24]) was “Active”. For the same compound, the Activity (HeLa [25]) was “Active”, the Activity (HeLa [26]) was “Active” and the Activity (HeLa [27]) was “Active”. The Activity (HeLa [28]) was “Active”, the Activity (HeLa [29]) was “Active” and the Activity (HeLa [30]) was “Active”. The Activity (HeLa [31]) was “Active” and the Activity (HeLa [32]) was “Active”.
